# Experimental data: patent US20250255867A1 (Kadmon Corporation, LLC, priority 2022, published 2025)
# Details: Cohort 1 200 mg QD
smiles,measurement,value
"CC(C)NC(=O)COc1cccc(-c2nc(Nc3ccc4[nH]ncc4c3)c3ccccc3n2)c1 [Belumosudil, 2-{3-[4-(1H-indazol-5-ylamino)-2-quinazolinyl]phenoxy}-N-(propan-2-yl) acetamide]",Hypogonadism: # Events,1
same,Hypogonadism: Affected/At Risk,1/17
same,Hypogonadism: Affected/At Risk (%),(5.88%)
same,Hypokalaemia: # Events,1
same,Hypokalaemia: Affected/At Risk,1/17
same,Hypokalaemia: Affected/At Risk (%),(5.88%)
same,Hypomagnesaemia: # Events,1
same,Hypomagnesaemia: Affected/At Risk,1/17
same,Hypomagnesaemia: Affected/At Risk (%),(5.88%)
same,Hyponatraemia: # Events,1
same,Hyponatraemia: Affected/At Risk,1/17
same,Hyponatraemia: Affected/At Risk (%),(5.88%)
same,Hypophosphataemia: # Events,1
same,Hypophosphataemia: Affected/At Risk,1/17
same,Hypophosphataemia: Affected/At Risk (%),(5.88%)
same,Hypothermia: # Events,0
same,Hypothermia: Affected/At Risk,0/17
same,Hypothermia: Affected/At Risk (%),(0%)
same,Hypothyroidism: # Events,2
same,Hypothyroidism: Affected/At Risk,1/17
same,Hypothyroidism: Affected/At Risk (%),(5.88%)
same,Hypoxia: # Events,1
same,Hypoxia: Affected/At Risk,1/17
same,Hypoxia: Affected/At Risk (%),(5.88%)
same,Impaired healing: # Events,1
same,Impaired healing: Affected/At Risk,1/17
same,Impaired healing: Affected/At Risk (%),(5.88%)
same,Influenza like illness: # Events,1
same,Influenza like illness: Affected/At Risk,1/17
same,Influenza like illness: Affected/At Risk (%),(5.88%)
same,Influenza: # Events,2
same,Influenza: Affected/At Risk,2/17
same,Influenza: Affected/At Risk (%),(11.76%)
same,Insomnia: # Events,0
same,Insomnia: Affected/At Risk,0/17
same,Insomnia: Affected/At Risk (%),(0%)
same,Irritability: # Events,1
same,Irritability: Affected/At Risk,1/17
same,Irritability: Affected/At Risk (%),(5.88%)
same,Joint range of motion decreased: # Events,0
same,Joint range of motion decreased: Affected/At Risk,0/17
same,Joint range of motion decreased: Affected/At Risk (%),(0%)
same,Lacrimation increased: # Events,0
same,Lacrimation increased: Affected/At Risk,0/17
same,Lacrimation increased: Affected/At Risk (%),(0%)
same,Leukaemia recurrent: # Events,1
same,Leukaemia recurrent: Affected/At Risk,1/17
same,Leukaemia recurrent: Affected/At Risk (%),(5.88%)
same,Leukocytosis: # Events,1
same,Leukocytosis: Affected/At Risk,1/17
same,Leukocytosis: Affected/At Risk (%),(5.88%)
same,Ligament sprain: # Events,1
same,Ligament sprain: Affected/At Risk,1/17
same,Ligament sprain: Affected/At Risk (%),(5.88%)
same,Limb injury: # Events,1
same,Limb injury: Affected/At Risk,1/17
same,Limb injury: Affected/At Risk (%),(5.88%)
same,Macular degeneration: # Events,0
same,Macular degeneration: Affected/At Risk,0/17
same,Macular degeneration: Affected/At Risk (%),(0%)
same,Migraine: # Events,0
same,Migraine: Affected/At Risk,0/17
same,Migraine: Affected/At Risk (%),(0%)
same,Muscle spasms: # Events,1
same,Muscle spasms: Affected/At Risk,1/17
same,Muscle spasms: Affected/At Risk (%),(5.88%)
same,Muscle spasticity: # Events,1
same,Muscle spasticity: Affected/At Risk,1/17
same,Muscle spasticity: Affected/At Risk (%),(5.88%)
same,Muscular weakness: # Events,6
same,Muscular weakness: Affected/At Risk,4/17
same,Muscular weakness: Affected/At Risk (%),(23.53%)
same,Musculoskeletal chest pain: # Events,1
same,Musculoskeletal chest pain: Affected/At Risk,1/17
same,Musculoskeletal chest pain: Affected/At Risk (%),(5.88%)
same,Myalgia: # Events,2
same,Myalgia: Affected/At Risk,1/17
same,Myalgia: Affected/At Risk (%),(5.88%)
same,Nail disorder: # Events,1
same,Nail disorder: Affected/At Risk,1/17
same,Nail disorder: Affected/At Risk (%),(5.88%)
same,Nasal congestion: # Events,3
same,Nasal congestion: Affected/At Risk,3/17
same,Nasal congestion: Affected/At Risk (%),(17.65%)
same,Nausea: # Events,10
same,Nausea: Affected/At Risk,6/17
same,Nausea: Affected/At Risk (%),(35.29%)
same,Neck pain: # Events,1
same,Neck pain: Affected/At Risk,1/17
same,Neck pain: Affected/At Risk (%),(5.88%)
same,Nephrotic syndrome: # Events,1
same,Nephrotic syndrome: Affected/At Risk,1/17
same,Nephrotic syndrome: Affected/At Risk (%),(5.88%)
same,Neuropathy peripheral: # Events,0
same,Neuropathy peripheral: Affected/At Risk,0/17
same,Neuropathy peripheral: Affected/At Risk (%),(0%)
same,Neutrophil count decreased: # Events,1
same,Neutrophil count decreased: Affected/At Risk,1/17
same,Neutrophil count decreased: Affected/At Risk (%),(5.88%)
same,Nocturia: # Events,1
same,Nocturia: Affected/At Risk,1/17
same,Nocturia: Affected/At Risk (%),(5.88%)
same,Non-cardiac chest pain: # Events,0
same,Non-cardiac chest pain: Affected/At Risk,0/17
same,Non-cardiac chest pain: Affected/At Risk (%),(0%)
same,Obesity: # Events,2
same,Obesity: Affected/At Risk,2/17
same,Obesity: Affected/At Risk (%),(11.76%)
same,Oedema peripheral: # Events,3
same,Oedema peripheral: Affected/At Risk,3/17
same,Oedema peripheral: Affected/At Risk (%),(17.65%)
same,Oedema: # Events,0
same,Oedema: Affected/At Risk,0/17
same,Oedema: Affected/At Risk (%),(0%)
same,Oesophageal ulcer: # Events,0
same,Oesophageal ulcer: Affected/At Risk,0/17
same,Oesophageal ulcer: Affected/At Risk (%),(0%)
same,Oral candidiasis: # Events,3
same,Oral candidiasis: Affected/At Risk,2/17
same,Oral candidiasis: Affected/At Risk (%),(11.76%)
same,Oropharyngeal pain: # Events,1
same,Oropharyngeal pain: Affected/At Risk,1/17
same,Oropharyngeal pain: Affected/At Risk (%),(5.88%)
same,Orthopnoea: # Events,1
same,Orthopnoea: Affected/At Risk,1/17
same,Orthopnoea: Affected/At Risk (%),(5.88%)
same,Osteonecrosis: # Events,1
same,Osteonecrosis: Affected/At Risk,1/17
same,Osteonecrosis: Affected/At Risk (%),(5.88%)
same,Osteopenia: # Events,0
same,Osteopenia: Affected/At Risk,0/17
same,Osteopenia: Affected/At Risk (%),(0%)
same,Osteoporosis: # Events,0
same,Osteoporosis: Affected/At Risk,0/17
same,Osteoporosis: Affected/At Risk (%),(0%)
same,Overdose: # Events,1
same,Overdose: Affected/At Risk,1/17
same,Overdose: Affected/At Risk (%),(5.88%)
same,Pain in extremity: # Events,2
same,Pain in extremity: Affected/At Risk,2/17
same,Pain in extremity: Affected/At Risk (%),(11.76%)
same,Pain: # Events,3
same,Pain: Affected/At Risk,3/17
same,Pain: Affected/At Risk (%),(17.65%)
same,Palpitations: # Events,1
same,Palpitations: Affected/At Risk,1/17
same,Palpitations: Affected/At Risk (%),(5.88%)
same,Paraesthesia: # Events,0
same,Paraesthesia: Affected/At Risk,0/17
same,Paraesthesia: Affected/At Risk (%),(0%)
same,Participants with TEAE,17 (100%) participants
same,Participants with TESAE,5 (29%) participants
same,Pericardial effusion: # Events,1
same,Pericardial effusion: Affected/At Risk,1/17
same,Pericardial effusion: Affected/At Risk (%),(5.88%)
same,Peripheral coldness: # Events,1
same,Peripheral coldness: Affected/At Risk,1/17
same,Peripheral coldness: Affected/At Risk (%),(5.88%)
same,Peripheral sensory neuropathy: # Events,0
same,Peripheral sensory neuropathy: Affected/At Risk,0/17
same,Peripheral sensory neuropathy: Affected/At Risk (%),(0%)
same,Phlebitis: # Events,0
same,Phlebitis: Affected/At Risk,0/17
same,Phlebitis: Affected/At Risk (%),(0%)
same,Photophobia: # Events,0
same,Photophobia: Affected/At Risk,0/17
same,Photophobia: Affected/At Risk (%),(0%)
same,Platelet count decreased: # Events,3
same,Platelet count decreased: Affected/At Risk,1/17
same,Platelet count decreased: Affected/At Risk (%),(5.88%)
same,Pleural effusion: # Events,1
same,Pleural effusion: Affected/At Risk,1/17
same,Pleural effusion: Affected/At Risk (%),(5.88%)
same,Pneumonia respiratory syncytial viral: # Events,0
same,Pneumonia respiratory syncytial viral: Affected/At Risk,0/17
same,Pneumonia respiratory syncytial viral: Affected/At Risk (%),(0%)
same,Pneumonia: # Events,2
same,Pneumonia: Affected/At Risk,1/17
same,Pneumonia: Affected/At Risk (%),(5.88%)
same,Pollakiuria: # Events,1
same,Pollakiuria: Affected/At Risk,1/17
same,Pollakiuria: Affected/At Risk (%),(5.88%)
same,Presyncope: # Events,0
same,Presyncope: Affected/At Risk,0/17
same,Presyncope: Affected/At Risk (%),(0%)
same,Productive cough: # Events,2
same,Productive cough: Affected/At Risk,2/17
same,Productive cough: Affected/At Risk (%),(11.76%)
same,Proteinuria: # Events,2
same,Proteinuria: Affected/At Risk,2/17
same,Proteinuria: Affected/At Risk (%),(11.76%)
same,Pruritus: # Events,1
same,Pruritus: Affected/At Risk,1/17
same,Pruritus: Affected/At Risk (%),(5.88%)
same,Pseudomonas infection: # Events,1
same,Pseudomonas infection: Affected/At Risk,1/17
same,Pseudomonas infection: Affected/At Risk (%),(5.88%)
same,Pulmonary mass: # Events,0
same,Pulmonary mass: Affected/At Risk,0/17
same,Pulmonary mass: Affected/At Risk (%),(0%)
same,Pyrexia: # Events,3
same,Pyrexia: Affected/At Risk,1/17
same,Pyrexia: Affected/At Risk (%),(5.88%)
same,Rash erythematous: # Events,0
same,Rash erythematous: Affected/At Risk,0/17
same,Rash erythematous: Affected/At Risk (%),(0%)
same,Rash maculo-papular: # Events,2
same,Rash maculo-papular: Affected/At Risk,2/17
same,Rash maculo-papular: Affected/At Risk (%),(11.76%)
same,Rash pustular: # Events,0
same,Rash pustular: Affected/At Risk,0/17
same,Rash pustular: Affected/At Risk (%),(0%)
same,Rash: # Events,2
same,Rash: Affected/At Risk,1/17
same,Rash: Affected/At Risk (%),(5.88%)
same,Red blood cells urine positive: # Events,0
same,Red blood cells urine positive: Affected/At Risk,0/17
same,Red blood cells urine positive: Affected/At Risk (%),(0%)
same,Renal failure: # Events,0
same,Renal failure: Affected/At Risk,0/17
same,Renal failure: Affected/At Risk (%),(0%)
same,Respiratory syncytial virus infection: # Events,0
same,Respiratory syncytial virus infection: Affected/At Risk,0/17
same,Respiratory syncytial virus infection: Affected/At Risk (%),(0%)
same,Respiratory tract infection fungal: # Events,1
same,Respiratory tract infection fungal: Affected/At Risk,1/17
same,Respiratory tract infection fungal: Affected/At Risk (%),(5.88%)
same,Respiratory tract infection: # Events,1
same,Respiratory tract infection: Affected/At Risk,1/17
same,Respiratory tract infection: Affected/At Risk (%),(5.88%)
same,Restless legs syndrome: # Events,0
same,Restless legs syndrome: Affected/At Risk,0/17
same,Restless legs syndrome: Affected/At Risk (%),(0%)
same,Rosacea: # Events,0
same,Rosacea: Affected/At Risk,0/17
same,Rosacea: Affected/At Risk (%),(0%)
same,"SAE Abdominal wall haematoma, # events",0
same,"SAE Abdominal wall haematoma, affected/at risk",0/17
same,"SAE Acute kidney injury, # events",0
same,"SAE Acute kidney injury, affected/at risk",0/17
same,"SAE Acute lymphocytic leukaemia recurrent, # events",0
same,"SAE Acute lymphocytic leukaemia recurrent, affected/at risk",0/17
same,"SAE Acute respiratory failure, # events",1
same,"SAE Acute respiratory failure, affected/at risk",1/17
same,"SAE Anaphylactic reaction, # events",1
same,"SAE Anaphylactic reaction, affected/at risk",1/17
same,"SAE Bacteraemia, # events",0
same,"SAE Bacteraemia, affected/at risk",0/17
same,"SAE Cardiac arrest, # events",0
same,"SAE Cardiac arrest, affected/at risk",0/17
same,"SAE Cellulitis, # events",0
same,"SAE Cellulitis, affected/at risk",0/17
same,"SAE Chronic graft versus host disease in skin, # events",0
same,"SAE Chronic graft versus host disease in skin, affected/at risk",0/17
same,"SAE Citrobacter infection, # events",0
same,"SAE Citrobacter infection, affected/at risk",0/17
same,"SAE Dyspnoea, # events",0
same,"SAE Dyspnoea, affected/at risk",0/17
same,"SAE Embolism, # events",0
same,"SAE Embolism, affected/at risk",0/17
same,"SAE Febrile neutropenia, # events",0
same,"SAE Febrile neutropenia, affected/at risk",0/17
same,"SAE Graft versus host disease in lung, # events",0
same,"SAE Graft versus host disease in lung, affected/at risk",0/17
same,"SAE Hypoxia, # events",0
same,"SAE Hypoxia, affected/at risk",0/17
same,"SAE Influenza A virus test positive, # events",1
same,"SAE Influenza A virus test positive, affected/at risk",1/17
same,"SAE Influenza like illness, # events",0
same,"SAE Influenza like illness, affected/at risk",0/17
same,"SAE Lacunar infarction, # events",0
same,"SAE Lacunar infarction, affected/at risk",0/17
same,"SAE Leukaemia recurrent, # events",0
same,"SAE Leukaemia recurrent, affected/at risk",0/17
